Results: US20260250272A1, “N-SUBSTITUTED QUINOLINONE COMPOUND, PREPARATION METHOD THEREFOR AND USE THEREOF” (VIGONVITA LIFE SCIENCES CO., LTD., priority 2022, published 2026)
Converted amounts (≈) assume the structure as drawn.

Test: Oil solubility test in benzyl benzoate (HPLC)
Assay type: physicochemical
Conditions: organic solvent or mixture, thermodynamic from solid, 25° C., shaken 2 h
Description: The solubility test was performed by quantitative analysis using an external standard method of high-performance liquid chromatography.
Reference sample solution: 10 mg of reference sample was weighed, placed in a 20 mL volumetric flask, diluted to the scale with 80% acetonitrile, and shaken uniformly.
Test sample solution: an appropriate amount of sample was dissolved in benzyl benzoate to obtain a saturated solution. The mixture was placed in a shaker and shaken at 25° C. and 800 rpm for 2 h. The sample solution was filtered, and 100 μL of filtrate was added to a 10 mL volumetric flask, diluted to the scale with 80% acetonitrile, and shaken uniformly.

For `CC(C)OC(=O)N1C(=O)CCc2ccc(CCN3CCN(c4cc(F)cc5sccc45)CC3)cc21` [Compound 4], the solubility at 2 h was 25.8 mg/mL (≈ 52 mM).
With `CCCCCCCCCCCCCCCC(=O)OCn1c(=O)ccc2ccc(CCN3CCN(c4cc(F)cc5sccc45)CC3)cc21` [Compound 9, (7-(2-(4-(6-Fluorobenzo[b]thiophen-4-yl)piperazin-1-yl)ethyl)-2-oxoquinolin-1(2H)-yl)methyl palmitate] the solubility at 2 h was > 200 mg/mL.
With `CCCCCCCCCC(=O)OCn1c(=O)ccc2ccc(CCN3CCN(c4cc(F)cc5sccc45)CC3)cc21` [Compound 10, (7-(2-(4-(6-Fluorobenzo[b]thiophen-4-yl)piperazin-1-yl)ethyl)-2-oxoquinolin-1(2H)-yl)methyl decanoate] the solubility at 2 h was > 200 mg/mL.
In the case of `CCCCCCCCCCCC(=O)OC(C)N1C(=O)CCc2ccc(CCN3CCN(c4cc(F)cc5sccc45)CC3)cc21` (stereo not shown) [Compound 13, 1-(7-(2-(4-(6-Fluorobenzo[b]thiophen-4-yl)piperazin-1-yl)ethyl)-2-oxo-3,4-dihydroquinolin-1(2H)-yl)ethyl dodecanoate], the solubility at 2 h is reported as > 200 mg/mL.
For `CCCCCCCCCCCOC(=O)OCN1C(=O)CCc2ccc(CCN3CCN(c4cc(F)cc5sccc45)CC3)cc21` [Compound 14, (7-(2-(4-(6-Fluorobenzo[b]thiophen-4-yl)piperazin-1-yl)ethyl)-2-oxo-3,4-dihydroquinolin-1(2H)-yl) methyl undecyl carbonate], the solubility at 2 h was > 200 mg/mL.
For `CCCCCCCCCCCCCCCC(=O)OC(C)N1C(=O)CCc2ccc(CCN3CCN(c4cc(F)cc5sccc45)CC3)cc21` (stereo not shown) [Compound 15, 1-(7-(2-(4-(6-Fluorobenzo[b]thiophen-4-yl)piperazin-1-yl)ethyl)-2-oxo-3,4-dihydroquinolin-1(2H)-yl) ethyl palmitate], the solubility at 2 h was > 200 mg/mL.
With `CCCCCCCOC(=O)OCN1C(=O)CCc2ccc(CCN3CCN(c4cc(F)cc5sccc45)CC3)cc21` [Compound 25, (7-(2-(4-(6-Fluorobenzo[b]thiophen-4-yl)piperazin-1-yl)ethyl)-2-oxo-3,4-dihydroquinolin-1(2H)-yl) methyl heptyl carbonate] the solubility at 2 h was > 200 mg/mL.
With `CCCCCCCCOC(=O)OCN1C(=O)CCc2ccc(CCN3CCN(c4cc(F)cc5sccc45)CC3)cc21` [Compound 26, (7-(2-(4-(6-Fluorobenzo[b]thiophen-4-yl)piperazin-1-yl)ethyl)-2-oxo-3,4-dihydroquinolin-1(2H)-yl) methyl octyl carbonate] the solubility at 2 h was > 200 mg/mL.
For `CCCCCCCCCOC(=O)OCN1C(=O)CCc2ccc(CCN3CCN(c4cc(F)cc5sccc45)CC3)cc21` [Compound 27, (7-(2-(4-(6-Fluorobenzo[b]thiophen-4-yl)piperazin-1-yl)ethyl)-2-oxo-3,4-dihydroquinolin-1(2H)-yl) methyl nonyl carbonate], the solubility at 2 h was > 200 mg/mL.
For `CCCCCCCCCCOC(=O)OCN1C(=O)CCc2ccc(CCN3CCN(c4cc(F)cc5sccc45)CC3)cc21` [Compound 28, Decyl ((7-(2-(4-(6-fluorobenzo[b]thiophen-4-yl)piperazin-1-yl)ethyl)-2-oxo-3,4-dihydroquinolin-1(2H)-yl)methyl) carbonate], the solubility at 2 h was > 200 mg/mL.
For `CCCCCCCCCCCCOC(=O)OCN1C(=O)CCc2ccc(CCN3CCN(c4cc(F)cc5sccc45)CC3)cc21` [Compound 29, Dodecyl ((7-(2-(4-(6-fluorobenzo[b]thiophen-4-yl)piperazin-1-yl)ethyl)-2-oxo-3,4-dihydroquinolin-1(2H)-yl)methyl) carbonate], the solubility at 2 h was > 200 mg/mL.
For `CCCCCCCCCCCCCCOC(=O)OCN1C(=O)CCc2ccc(CCN3CCN(c4cc(F)cc5sccc45)CC3)cc21` [Compound 30, (7-(2-(4-(6-Fluorobenzo[b]thiophen-4-yl)piperazin-1-yl)ethyl)-2-oxo-3,4-dihydroquinolin-1(2H)-yl) methyl tetradecyl carbonate], the solubility at 2 h was > 200 mg/mL.
In the case of `CCCCCCCCCCCCCCCCOC(=O)OCN1C(=O)CCc2ccc(CCN3CCN(c4cc(F)cc5sccc45)CC3)cc21` [Compound 31, (7-(2-(4-(6-Fluorobenzo[b]thiophen-4-yl)piperazin-1-yl)ethyl)-2-oxo-3,4-dihydroquinolin-1(2H)-yl)methyl hexadecyl carbonate], the solubility at 2 h is reported as > 200 mg/mL.
